Patent US4271161A, “Indane-acetic acid aminoesters, their preparation and their use in therapy” (Hexachimie, priority 1978, dated 1981)

Columns and labels:
[1] = system: pain reactions (abdominal writhing) induced by phenylbenzoquinone; experiment: phenylbenzoquinone-induced writhing in mice (analgesic action); type: in vivo, male mice (SPF, strain OF1); settings: for percentage inhibition of pain reactions (abdominal writhing): phenylbenzoquinone i.p. after one hour; for ED50: Mus musculus, po, inhibition of phenylbenzoquinone writhing
Procedure: The products being tested are administered orally (p.o.) to batches of 12 male mice (SPF, strain OF1), weighing 19-20 g. After one hour, 0.3 ml/mouse of a 0.02% strength solution of phenylbenzoquinone is injected intraperitoneally and the number of pain reactions (abdominal writhing) is counted from the 5th to the 10th minute after the latter treatment. The table below gives the percentage inhibition of these reactions.

[2] = system: mice; experiment: toxicity: mortality after intraperitoneal administration in mice; type: in vivo
Text: In mice, no mortality was observed after intraperitoneal administration up to doses of: […]

| SMILES | percentage inhibition of pain reactions (abdominal writhing) ([1]; 1 mg.kg^-1 p.o.) | percentage inhibition of pain reactions (abdominal writhing) ([1]; 2 mg.kg^-1 p.o.) | percentage inhibition of pain reactions (abdominal writhing) ([1]; 4 mg.kg^-1 p.o.) | percentage inhibition of pain reactions (abdominal writhing) ([1]; 8 mg.kg^-1 p.o.) | percentage inhibition of pain reactions (abdominal writhing) ([1]; 16 mg.kg^-1 p.o.) | percentage inhibition of pain reactions (abdominal writhing) ([1]; 32 mg.kg^-1 p.o.) | ED50 [1] | dose up to which no mortality was observed [2] | percentage inhibition of pain reactions (abdominal writhing) ([1]; 64 mg.kg^-1 p.o.) | percentage inhibition of pain reactions (abdominal writhing) ([1]; 128 mg.kg^-1 p.o.) |
| --- | --- | --- | --- | --- | --- | --- | --- | --- | --- | --- |
| CCC1Cc2ccc(C(C)C(=O)OCCN3CCN(c4cccc(C(F)(F)F)c4)CC3)cc2C1 (stereo not drawn) [2 or 5] | 22% | 47% | 59% | 64% | 65% | 82% | 4 mg/kg | 512 mg/kg | – | – |
| CC(C(=O)OCCN1CCN(c2cccc(C(F)(F)F)c2)CC1)c1ccc2c(c1)CC(C(C)C)C2 (stereo not drawn) [4 or 6] | – | – | – | 23% | 40% | 67% | 25 mg/kg | 256 mg/kg | 75% | 75% |
